The values that follow are results of earlier work, collected in US8613946B2, “Carotenoids of enhanced bioavailability” (ISP Investment Inc., priority 2006, dated 2013).

Like-named read-outs stand apart in the source and are kept apart here.

[1] abbreviates: classification of The Merck Index.

On to `CC1=C[C@H](O)CC(C)(C)[C@H]1/C=C/C(C)=C/C=C/C(C)=C/C=C/C=C(C)/C=C/C=C(C)/C=C/C1=C(C)C[C@@H](O)CC1(C)C` [lutein], for which, under setting [1], the solubility in water result is “insoluble in water”. With `CC1=C(/C=C/C(C)=C/C=C/C(C)=C/C=C/C=C(C)/C=C/C=C(C)/C=C/C2=C(C)CCCC2(C)C)C(C)(C)CCC1` [β-carotene], the solubility in water entry under setting [1] is reported as “practically insoluble in water”. For `CC(C)=CCC/C(C)=C/C=C/C(C)=C/C=C/C(C)=C/C=C/C=C(C)/C=C/C=C(C)/C=C/C=C(\C)CCC=C(C)C` [lycopene], the solubility in water result (statement of The PDR For Nutritional Supplements) is given as “insoluble in water”. With `CC1=CCCC(C)(C)C1/C=C/C(C)=C/C=C/C(C)=C/C=C/C=C(C)/C=C/C=C(C)/C=C/C1=C(C)CCCC1(C)C` (stereo not drawn) [α-carotene], the solubility in water result under setting [1] is recorded as “practically insoluble in water”.
